Results: PubChem BioAssay AID1963860 (Molecular Pharmacology Branch, DTP, NCI, 2024)

Tested on: CN0375-F725-PDC KRAS spheroid viability
Assay: Anticancer human tumor CN0375-F725-PDC patient-derived colon carcinoma cell line growth inhibition [KRAS2]
Conditions: spheroids with HUVEC and MSC; for IC50: curve of first compound; for viability, T/C: stronger effect = lower value
Summary of the method: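 KRAS-mutant tumor cells were grown as spheroids with HUVEC endothelial cells and human MSCs as stroma. Targeted agents were tested alone and with KRAS pathway inhibitors. Doses started at or near clinical Cmax, or 10 microM, descending half-log.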

[1] = second compound 0.1 µM, first compound 0.0316 µM
[2] = second compound 0.1 µM, first compound 0.1 µM
[3] = second compound 0.1 µM, first compound 0.316 µM
[4] = second compound 0.1 µM, first compound 1 µM
[5] = second compound 0.1 µM, first compound 3.16 µM
[6] = second compound 0.1 µM, first compound 10 µM
[7] = second compound 0.316 µM, first compound 0.0316 µM
[8] = second compound 0.316 µM, first compound 0.1 µM
[9] = second compound 0.316 µM, first compound 0.316 µM
[10] = second compound 0.316 µM, first compound 1 µM
[11] = second compound 0.316 µM, first compound 3.16 µM
[12] = second compound 0.316 µM, first compound 10 µM
[13] = second compound 1 µM, first compound 0.0316 µM
[14] = second compound 1 µM, first compound 0.1 µM
[15] = second compound 1 µM, first compound 0.316 µM
[16] = second compound 1 µM, first compound 1 µM
[17] = second compound 1 µM, first compound 3.16 µM
[18] = second compound 1 µM, first compound 10 µM
[19] = second compound 3.16 µM, first compound 0.0316 µM
[20] = second compound 3.16 µM, first compound 0.1 µM
[21] = second compound 3.16 µM, first compound 0.316 µM
[22] = second compound 3.16 µM, first compound 1 µM
[23] = second compound 3.16 µM, first compound 3.16 µM
[24] = second compound 3.16 µM, first compound 10 µM
[25] = second compound 0.0316 µM, first compound 0.0316 µM
[26] = second compound 0.0316 µM, first compound 0.1 µM
[27] = second compound 0.0316 µM, first compound 0.316 µM
[28] = second compound 0.0316 µM, first compound 1 µM
[29] = second compound 0.0316 µM, first compound 3.16 µM
[30] = second compound 0.0316 µM, first compound 10 µM
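Further: spheroids exposed to agents for 7 days.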

Question: What does the source list for `CCNC(=O)CC1N=C(c2ccc(Cl)cc2)c2cc(OC)ccc2-n2c(C)nnc21` (stereo not given) + C=CC(=O)N1CCN(c2nc(=O)n(-c3c(C)ccnc3C(C)C)c3nc(-c4c(O)cccc4F)c(F)cc23)C(C)C1?
Answer: IC50 (second compound 0.1 µM): > 10 µM; IC50 (second compound 0.316 µM): > 10 µM; IC50 (second compound 1 µM): > 10 µM; IC50 (second compound 3.16 µM): > 10 µM; IC50 (second compound 10 µM): > 10 µM; viability, T/C [1]: 100%; viability, T/C [2]: 95.8%; viability, T/C [3]: 88.1%; viability, T/C [4]: 86%; viability, T/C [5]: 74.7%; viability, T/C [6]: 57.4%; viability, T/C [7]: 99.9%; viability, T/C [8]: 99.5%; viability, T/C [9]: 84.5%; viability, T/C [10]: 82%; viability, T/C [11]: 71.1%; viability, T/C [12]: 58%; viability, T/C [13]: 104%; viability, T/C [14]: 104%; viability, T/C [15]: 87.3%; viability, T/C [16]: 86.8%; viability, T/C [17]: 75.5%; viability, T/C [18]: 64.7%; viability, T/C [19]: 104%; viability, T/C [20]: 94.9%; viability, T/C [21]: 88.4%; viability, T/C [22]: 85.1%; viability, T/C [23]: 67.9%; viability, T/C [24]: 59%; viability, T/C (second compound 10 µM, first compound 0.0316 µM): 102%; viability, T/C (second compound 10 µM, first compound 0.1 µM): 99%; viability, T/C (second compound 10 µM, first compound 0.316 µM): 84.6%; viability, T/C (second compound 10 µM, first compound 1 µM): 71.6%; viability, T/C (second compound 10 µM, first compound 3.16 µM): 73.9%; viability, T/C (second compound 10 µM, first compound 10 µM): 60.8%

Question: How did the IC50 (second compound 0.0316 µM) turn out when `CC(=O)Nc1cccc(-n2c(=O)n(C3CC3)c(=O)c3c(Nc4ccc(I)cc4F)n(C)c(=O)c(C)c32)c1` + C=CC(=O)N1CCN(c2nc(OCC3CCCN3C)nc3c2CCN(c2cccc4cccc(C)c24)C3)CC1CC#N was run?
Answer: 0.00565 µM

Question: What about the IC50 (second compound 0.1 µM) of the same molecule?
Answer: 0.00491 µM

Question: And the IC50 (second compound 0.316 µM)?
Answer: 0.00319 µM

Question: And the IC50 (second compound 1 µM)?
Answer: 0.00162 µM

Question: What about the IC50 (second compound 3.16 µM) of the same molecule?
Answer: < 0.0001 µM

Question: And the viability, T/C (second compound 0.0316 µM, first compound 0.0001 µM)?
Answer: 91%

Question: What about the viability, T/C (second compound 0.0316 µM, first compound 0.000316 µM) of the same molecule?
Answer: 85.7%

Question: What about the viability, T/C (second compound 0.0316 µM, first compound 0.001 µM) of the same molecule?
Answer: 67.1%

Question: What about the viability, T/C (second compound 0.0316 µM, first compound 0.00316 µM) of the same molecule?
Answer: 53.3%

Question: What about the viability, T/C (second compound 0.0316 µM, first compound 0.01 µM) of the same molecule?
Answer: 48.6%

Question: And the viability, T/C [25]?
Answer: 33.9%

Question: What about the viability, T/C (second compound 0.1 µM, first compound 0.0001 µM) of the same molecule?
Answer: 92.3%

Question: And the viability, T/C (second compound 0.1 µM, first compound 0.000316 µM)?
Answer: 86%

Question: What about the viability, T/C (second compound 0.1 µM, first compound 0.001 µM) of the same molecule?
Answer: 66.2%

Question: What about the viability, T/C (second compound 0.1 µM, first compound 0.00316 µM) of the same molecule?
Answer: 54.2%

Question: What about the viability, T/C (second compound 0.1 µM, first compound 0.01 µM) of the same molecule?
Answer: 44.5%

Question: What about the viability, T/C [1] of the same molecule?
Answer: 30.7%

Question: What about the viability, T/C (second compound 0.316 µM, first compound 0.0001 µM) of the same molecule?
Answer: 86.8%

Question: And the viability, T/C (second compound 0.316 µM, first compound 0.000316 µM)?
Answer: 77.7%

Question: And the viability, T/C (second compound 0.316 µM, first compound 0.001 µM)?
Answer: 61.6%

Question: What about the viability, T/C (second compound 0.316 µM, first compound 0.00316 µM) of the same molecule?
Answer: 50.8%

Question: And the viability, T/C (second compound 0.316 µM, first compound 0.01 µM)?
Answer: 38.3%

Question: What about the viability, T/C [7] of the same molecule?
Answer: 28.1%

Question: What about the viability, T/C (second compound 1 µM, first compound 0.0001 µM) of the same molecule?
Answer: 81.9%

Question: And the viability, T/C (second compound 1 µM, first compound 0.000316 µM)?
Answer: 73.1%

Question: And the viability, T/C (second compound 1 µM, first compound 0.001 µM)?
Answer: 53.7%

Question: And the viability, T/C (second compound 1 µM, first compound 0.00316 µM)?
Answer: 41.2%

Question: And the viability, T/C (second compound 1 µM, first compound 0.01 µM)?
Answer: 35.7%

Question: And the viability, T/C [13]?
Answer: 25.3%

Question: And the viability, T/C (second compound 3.16 µM, first compound 0.0001 µM)?
Answer: 19.1%

Question: And the viability, T/C (second compound 3.16 µM, first compound 0.000316 µM)?
Answer: 20.7%

Question: What about the viability, T/C (second compound 3.16 µM, first compound 0.001 µM) of the same molecule?
Answer: 9.33%

Question: What about the viability, T/C (second compound 3.16 µM, first compound 0.00316 µM) of the same molecule?
Answer: 12.7%

Question: And the viability, T/C (second compound 3.16 µM, first compound 0.01 µM)?
Answer: 1.9%

Question: What about the viability, T/C [19] of the same molecule?
Answer: 7.1%

Question: What does the source list for `COc1cc(Nc2ncc3c(n2)-c2ccc(Cl)cc2C(c2c(F)cccc2OC)=NC3)ccc1C(=O)O` + C=CC(=O)N1CCN(c2nc(OCC3CCCN3C)nc3c2CCN(c2cccc4cccc(C)c24)C3)CC1CC#N?
Answer: IC50 (second compound 0.0316 µM): > 10 µM; IC50 (second compound 0.1 µM): > 10 µM; IC50 (second compound 0.316 µM): > 10 µM; IC50 (second compound 1 µM): > 10 µM; IC50 (second compound 3.16 µM): < 0.0316 µM; viability, T/C [25]: 96.6%; viability, T/C [26]: 108%; viability, T/C [27]: 91.8%; viability, T/C [28]: 95%; viability, T/C [29]: 93.9%; viability, T/C [30]: 74.9%; viability, T/C [1]: 109%; viability, T/C [2]: 105%; viability, T/C [3]: 91.3%; viability, T/C [4]: 92.5%; viability, T/C [5]: 95.9%; viability, T/C [6]: 79.3%; viability, T/C [7]: 103%; viability, T/C [8]: 101%; viability, T/C [9]: 94.8%; viability, T/C [10]: 91.8%; viability, T/C [11]: 88%; viability, T/C [12]: 75.7%; viability, T/C [13]: 88.3%; viability, T/C [14]: 90.8%; viability, T/C [15]: 82.9%; viability, T/C [16]: 83.2%; viability, T/C [17]: 83.9%; viability, T/C [18]: 73.8%; viability, T/C [19]: 16.5%; viability, T/C [20]: 23%; viability, T/C [21]: 14%; viability, T/C [22]: 44.8%; viability, T/C [23]: 42.3%; viability, T/C [24]: 22.3%

Question: `Cn1nccc1Nc1nccc(-c2cc3c(s2)C(C)(C)N(CCN2CCOCC2)C3=O)n1` + C=CC(=O)N1CCN(c2nc(OCC3CCCN3C)nc3c2CCN(c2cccc4cccc(C)c24)C3)CC1CC#N was tested. Which IC50 (second compound 0.0316 µM) did it give?
Answer: 3.93 µM

Question: What about the IC50 (second compound 0.1 µM) of the same molecule?
Answer: 2.98 µM

Question: What about the IC50 (second compound 0.316 µM) of the same molecule?
Answer: 2.23 µM

Question: What about the IC50 (second compound 1 µM) of the same molecule?
Answer: 0.739 µM

Question: What about the IC50 (second compound 3.16 µM) of the same molecule?
Answer: < 0.0316 µM

Question: What about the viability, T/C [25] of the same molecule?
Answer: 100%

Question: And the viability, T/C [26]?
Answer: 97.3%

Question: And the viability, T/C [27]?
Answer: 76.9%

Question: And the viability, T/C [28]?
Answer: 68.9%

Question: What about the viability, T/C [29] of the same molecule?
Answer: 52.7%

Question: And the viability, T/C [30]?
Answer: 39%

Question: And the viability, T/C [1]?
Answer: 95.7%

Question: What about the viability, T/C [2] of the same molecule?
Answer: 93.4%

Question: What about the viability, T/C [3] of the same molecule?
Answer: 77.2%

Question: And the viability, T/C [4]?
Answer: 63.4%

Question: What about the viability, T/C [5] of the same molecule?
Answer: 50.4%

Question: What about the viability, T/C [6] of the same molecule?
Answer: 39.7%

Question: What about the viability, T/C [7] of the same molecule?
Answer: 91.5%

Question: What about the viability, T/C [8] of the same molecule?
Answer: 91.3%

Question: What about the viability, T/C [9] of the same molecule?
Answer: 70.3%

Question: And the viability, T/C [10]?
Answer: 60.3%

Question: What about the viability, T/C [11] of the same molecule?
Answer: 46.9%

Question: And the viability, T/C [12]?
Answer: 38%

Question: And the viability, T/C [13]?
Answer: 87.6%

Question: And the viability, T/C [14]?
Answer: 82.8%

Question: And the viability, T/C [15]?
Answer: 52.4%

Question: What about the viability, T/C [16] of the same molecule?
Answer: 47%

Question: What about the viability, T/C [17] of the same molecule?
Answer: 39.1%

Question: What about the viability, T/C [18] of the same molecule?
Answer: 23.1%

Question: What about the viability, T/C [19] of the same molecule?
Answer: 27.7%

Question: What about the viability, T/C [20] of the same molecule?
Answer: 24.3%

Question: What about the viability, T/C [21] of the same molecule?
Answer: 11.9%

Question: And the viability, T/C [22]?
Answer: 7.82%

Question: And the viability, T/C [23]?
Answer: 5.81%

Question: What about the viability, T/C [24] of the same molecule?
Answer: 2.15%
